Earlier results in patent US7230101B1, “Synthesis of methotrexate-containing heterodimeric molecules” (GPC Biotech, Inc., priority 2002, dated 2007).
pKd: −log10 of the molar value. Blank lines part the entries; values can stand above or below the compound they belong to.

Tests used:
[1] = molecular target: Glutathione-S-Transferase; conditions: read-out: Affinity, dissociation constant, known in the art
6 X His = conditions: dissociation constant, known in the art, read-out: Affinity
Tet-R = Tet-R (Escherichia coli, UniProt P04483); conditions: dissociation constant, known in the art, read-out: Affinity
Sequence of Tet-R (P04483 whole entry): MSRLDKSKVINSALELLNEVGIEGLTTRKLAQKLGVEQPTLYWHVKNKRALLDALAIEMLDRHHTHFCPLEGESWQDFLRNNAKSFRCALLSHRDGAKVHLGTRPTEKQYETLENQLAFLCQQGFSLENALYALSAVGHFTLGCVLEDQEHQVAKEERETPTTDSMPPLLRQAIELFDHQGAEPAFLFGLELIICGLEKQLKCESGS

- pKd [1]: 4.62
Structure (SMILES): N[C@@H](CCC(=O)N[C@@H](CS)C(=O)NCC(=O)O)C(=O)O [Glutathione]

Structure (SMILES): [Ni] [Ni]
- pKd (6 X His): 6.10

Structure (SMILES): CN(C)[C@@H]1C(=O)C(C(N)=O)=C(O)[C@@]2(O)C(=O)C3=C(O)c4c(O)cccc4[C@@](C)(O)[C@H]3C[C@@H]12 [Tetracyclin]
- pKd (Tet-R): 7.62
